From ChEMBL document CHEMBL1137797, “Differential inhibition of reverse transcriptase and various DNA polymerases by digallic acid and its derivatives” (J Nat Prod, 1990)
pKi: −log10 of the molar value. Calls of active or inactive are those of the source. The rule behind the calls is not given here.

Experiments:
[1] = system: Human immunodeficiency virus; assay: Inhibition of HIV reverse transcriptase activity expressed in Escherichia coli
[2] = system: Rauscher murine leukemia virus; assay: Inhibition of Rauscher murine leukemia virus reverse transcriptase activity
[3] = Inhibition of HIV reverse transcriptase expressed in Escherichia coli by Dixon plot; design: species or system Human immunodeficiency virus
[4] = system: Human immunodeficiency virus; assay: Inhibition of HIV reverse transcriptase expressed in Escherichia coli assessed as non-competitive inhibition using dTTP as primer by double reciprocal plot
[5] = system: Human immunodeficiency virus; assay: Inhibition of HIV reverse transcriptase expressed in Escherichia coli assessed as competitive inhibition using (rA)n.(dT)12-18 as primer by double reciprocal plot
[6] = system: Human immunodeficiency virus; assay: Inhibition of HIV reverse transcriptase expressed in Escherichia coli assessed as mixed-type inhibition using (rA)n.(dT)12-18 as primer by double reciprocal plot
[7] = system: Rauscher murine leukemia virus; assay: Inhibition of Rauscher murine leukemia virus reverse transcriptase assessed as incorporation of [3H]dTMP at 0.2 ug/ml
[8] = system: Human immunodeficiency virus; assay: Inhibition of HIV reverse transcriptase expressed in Escherichia coli assessed as incorporation of [3H]dTMP at 0.2 ug/ml
[9] = system: Rauscher murine leukemia virus; assay: Inhibition of Rauscher murine leukemia virus reverse transcriptase assessed as incorporation of [3H]dTMP at 1 ug/ml
[10] = system: Human immunodeficiency virus; assay: Inhibition of HIV reverse transcriptase expressed in Escherichia coli assessed as incorporation of [3H]dTMP at 1 ug/ml
[11] = system: KB3; assay: Inhibition of DNA polymerase gamma from human KB3 cells up to 1 ug/ml; type: cell-based
[12] = molecular target: DNA nucleotidylexotransferase (Bos taurus) (UniProt P06526); assay: Inhibition of terminal deoxynucleotidyltransferase from calf thymus up to 1 ug/ml
DNA nucleotidylexotransferase (Bos taurus), sequence (P06526 whole entry): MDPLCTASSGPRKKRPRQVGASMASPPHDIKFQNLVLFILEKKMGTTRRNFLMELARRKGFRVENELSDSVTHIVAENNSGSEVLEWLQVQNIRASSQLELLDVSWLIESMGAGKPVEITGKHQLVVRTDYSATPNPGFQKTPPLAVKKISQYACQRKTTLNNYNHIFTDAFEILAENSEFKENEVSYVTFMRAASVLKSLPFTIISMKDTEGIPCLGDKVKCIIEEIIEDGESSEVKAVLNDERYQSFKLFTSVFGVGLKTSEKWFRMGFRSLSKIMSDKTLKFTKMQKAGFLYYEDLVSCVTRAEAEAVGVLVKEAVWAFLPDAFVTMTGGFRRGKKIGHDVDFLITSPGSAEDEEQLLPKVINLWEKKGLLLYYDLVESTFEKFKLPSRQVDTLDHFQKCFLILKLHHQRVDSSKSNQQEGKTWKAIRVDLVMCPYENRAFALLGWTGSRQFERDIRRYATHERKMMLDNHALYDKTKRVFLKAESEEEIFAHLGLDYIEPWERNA

[13] = molecular target: T1, DNA polymerase alpha catalytic subunit (Homo sapiens) (UniProt P09884); assay: Inhibition of DNA polymerase alpha from human KB3 cells at 1 ug/ml; type: cell-based
T1 sequence (whole entry): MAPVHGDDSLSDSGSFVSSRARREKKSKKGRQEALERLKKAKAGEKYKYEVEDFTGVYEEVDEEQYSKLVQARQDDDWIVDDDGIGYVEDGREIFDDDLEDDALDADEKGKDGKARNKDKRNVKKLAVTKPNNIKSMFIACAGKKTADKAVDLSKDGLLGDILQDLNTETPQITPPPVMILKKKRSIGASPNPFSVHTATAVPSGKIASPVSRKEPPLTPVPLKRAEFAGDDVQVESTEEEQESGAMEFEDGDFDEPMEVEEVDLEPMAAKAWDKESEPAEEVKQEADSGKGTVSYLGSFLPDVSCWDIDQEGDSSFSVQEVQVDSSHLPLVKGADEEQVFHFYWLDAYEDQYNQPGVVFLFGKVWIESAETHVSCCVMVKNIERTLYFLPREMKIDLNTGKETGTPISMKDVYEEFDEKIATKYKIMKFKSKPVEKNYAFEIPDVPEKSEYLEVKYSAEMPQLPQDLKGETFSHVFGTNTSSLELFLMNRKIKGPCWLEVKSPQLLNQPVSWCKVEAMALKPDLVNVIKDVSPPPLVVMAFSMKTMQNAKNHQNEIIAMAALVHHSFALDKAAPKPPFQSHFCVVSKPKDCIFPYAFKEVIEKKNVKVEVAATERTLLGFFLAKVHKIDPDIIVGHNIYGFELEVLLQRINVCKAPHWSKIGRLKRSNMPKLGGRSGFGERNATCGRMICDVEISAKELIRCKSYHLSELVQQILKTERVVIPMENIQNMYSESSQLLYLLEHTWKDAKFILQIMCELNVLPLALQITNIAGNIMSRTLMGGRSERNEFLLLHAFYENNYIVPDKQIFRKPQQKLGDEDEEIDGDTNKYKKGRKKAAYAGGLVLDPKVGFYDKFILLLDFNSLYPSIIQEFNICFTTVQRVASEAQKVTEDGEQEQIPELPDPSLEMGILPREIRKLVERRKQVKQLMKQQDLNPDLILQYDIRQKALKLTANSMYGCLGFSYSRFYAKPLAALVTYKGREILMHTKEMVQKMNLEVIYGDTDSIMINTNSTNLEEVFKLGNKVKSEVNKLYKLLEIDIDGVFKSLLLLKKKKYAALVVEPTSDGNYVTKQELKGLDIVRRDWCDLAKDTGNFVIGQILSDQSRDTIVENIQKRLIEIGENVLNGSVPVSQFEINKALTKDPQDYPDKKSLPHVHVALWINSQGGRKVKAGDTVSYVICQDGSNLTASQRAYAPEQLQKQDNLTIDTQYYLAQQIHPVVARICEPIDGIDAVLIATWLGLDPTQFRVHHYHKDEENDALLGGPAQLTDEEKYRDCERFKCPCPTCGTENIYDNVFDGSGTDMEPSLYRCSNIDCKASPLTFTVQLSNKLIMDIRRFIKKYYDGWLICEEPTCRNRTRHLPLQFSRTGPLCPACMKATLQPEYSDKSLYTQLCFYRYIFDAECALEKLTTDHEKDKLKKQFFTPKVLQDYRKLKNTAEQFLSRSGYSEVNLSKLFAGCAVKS

[14] = molecular target: T2, DNA polymerase alpha catalytic subunit (Homo sapiens, UniProt P09884); assay: Inhibition of DNA polymerase alpha from human KB3 cells; type: cell-based
T2 sequence (P09884 whole entry): T1 sequence (whole entry)

[15] = molecular target: T3, DNA polymerase beta (Homo sapiens, UniProt P06746); assay: Inhibition of DNA polymerase beta from human KB3 cells; type: cell-based
[16] = molecular target: DNA polymerase I (Escherichia coli) (UniProt P00582); assay: Inhibition of DNA polymerase-1 from Escherichia coli up to 1 ug/ml
DNA polymerase I (Escherichia coli), sequence (P00582 whole entry): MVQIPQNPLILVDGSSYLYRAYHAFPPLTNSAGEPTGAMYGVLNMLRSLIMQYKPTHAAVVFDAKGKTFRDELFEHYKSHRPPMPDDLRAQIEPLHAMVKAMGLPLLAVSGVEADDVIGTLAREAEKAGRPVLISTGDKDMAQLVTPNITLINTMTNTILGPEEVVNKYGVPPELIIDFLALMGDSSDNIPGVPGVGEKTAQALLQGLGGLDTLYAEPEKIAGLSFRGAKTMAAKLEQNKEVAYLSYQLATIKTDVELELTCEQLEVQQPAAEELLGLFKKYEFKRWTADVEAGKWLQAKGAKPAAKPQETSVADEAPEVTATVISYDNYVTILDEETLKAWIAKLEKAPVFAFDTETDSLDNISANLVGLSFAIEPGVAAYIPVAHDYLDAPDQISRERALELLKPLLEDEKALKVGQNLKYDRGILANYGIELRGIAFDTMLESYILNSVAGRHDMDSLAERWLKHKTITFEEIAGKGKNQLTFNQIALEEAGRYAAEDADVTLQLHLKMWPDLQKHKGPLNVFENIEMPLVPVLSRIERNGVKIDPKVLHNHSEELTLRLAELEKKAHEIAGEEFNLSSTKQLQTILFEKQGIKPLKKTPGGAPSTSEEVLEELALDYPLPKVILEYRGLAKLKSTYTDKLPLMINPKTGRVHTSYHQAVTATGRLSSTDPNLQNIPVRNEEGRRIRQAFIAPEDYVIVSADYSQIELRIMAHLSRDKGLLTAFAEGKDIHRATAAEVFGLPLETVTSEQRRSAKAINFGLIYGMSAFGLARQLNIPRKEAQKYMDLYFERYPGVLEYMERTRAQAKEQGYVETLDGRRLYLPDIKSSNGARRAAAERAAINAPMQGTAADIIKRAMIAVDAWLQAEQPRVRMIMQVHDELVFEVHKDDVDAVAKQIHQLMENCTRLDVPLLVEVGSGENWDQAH

[17] = molecular target: T1, DNA polymerase alpha catalytic subunit (Homo sapiens); assay: Inhibition of DNA polymerase alpha from human KB3 cells assessed as competitive type inhibition using activated DNA as substrate
[18] = molecular target: T1, DNA polymerase alpha catalytic subunit (Homo sapiens); assay: Inhibition of DNA polymerase alpha from human KB3 cells assessed as non-competitive type inhibition using dNTP as substrate
[19] = molecular target: T3, DNA polymerase beta; assay: Inhibition of DNA polymerase beta from human KB3 cells assessed as competitive type inhibition using (rA)n.(dT)12-18 as substrate
[20] = molecular target: T3, DNA polymerase beta; assay: Inhibition of DNA polymerase beta from human KB3 cells assessed as non-competitive type inhibition using dTTP as substrate
[21] = system: Rauscher murine leukemia virus; assay: Inhibition of Rauscher murine leukemia virus reverse transcriptase assessed as incorporation of [3H]dTMP at 10 ug/ml
[22] = system: Human immunodeficiency virus; assay: Inhibition of HIV reverse transcriptase expressed in Escherichia coli assessed as incorporation of [3H]dTMP at 10 ug/ml

Structure (SMILES)	Activity [1]	Activity [2]	pKi [3]	Activity [4]	other results
COCCOCCOC(=O)c1cc(O)c(O)c(O)c1	inactive	inactive	–	–	–
O=C(Oc1cc(O)cc(O)c1C(=O)O)c1ccc(O)c(O)c1	inactive	inactive	–	–	–
COCCOCCOc1c(C(=O)Oc2cc(C(=O)O)cc(O)c2O)ccc(O)c1O	inactive	inactive	–	–	–
COCCOCCOC(=O)c1cc(O)c(O)c(OC(=O)c2ccc(O)c(O)c2O)c1	Active	Active	6.92	Active	Activity [5]: Active
COCCOCCOCCOC(=O)c1cc(O)c(O)c(OC(=O)c2ccc(O)c(O)c2O)c1	Active	Active	6.41	Active	Activity [6]: Active
COCCOCCOc1c(O)ccc(C(=O)Oc2cc(C(=O)O)cc(O)c2O)c1O	inactive	inactive	–	–	–
O=C(O)c1cc(O)c(O)c(OC(=O)c2cc(O)c(O)c(O)c2)c1 [DIGALLIC ACID]	–	–	6.24	Active	inhibition [7]: 70%; inhibition [8]: 70%; Activity [9]: Active; Activity [10]: Active; Activity [11]: inactive; Activity [12]: inactive; Activity [6]: Active; inhibition [13]: > 90%; pKi [14]: 6.08; pKi [15]: 6.41; Activity [16]: inactive; Activity [17]: Active; Activity [18]: Active; Activity [19]: Active; Activity [20]: Active
COCCOCCOCCOC(=O)c1cc(O)c(O)c(O)c1	inactive	inactive	–	–	–
O=C(O)c1cc(O)c(O)c(O)c1	inactive	inactive	–	–	Activity [21]: inactive; Activity [22]: inactive
